Measurements published in paper PMC5146859, “Phase 1/2 study of pacritinib, a next generation JAK2/FLT3 inhibitor, in myelofibrosis or other myeloid malignancies” (Journal of Hematology & Oncology, 2016).
Like-named read-outs stand apart in the source and are kept apart here.

What was measured:
[1] = test system: patients with advanced myeloid malignancies; assay: Phase 1 dose escalation: dose-limiting toxicities and MTD; type: in vivo
Procedure: Phase 1 was a 3 + 3 dose-escalation study. Three to six patients were enrolled at each dose level, depending upon observed dose-limiting toxicities (DLTs) in the cohort. Each patient participated in only one cohort. Oral pacritinib was administered to the first cohort at 100 mg once daily (QD) for 25 consecutive days in a 28-day cycle in cycle 1, with 3 days of rest for pharmacokinetic (PK) sampling, followed by continuous 28-day dosing for the remaining cycles. Subsequent cohorts received escalating pacritinib dose levels of 150, 200, 300, 400, 500, and 600 mg QD. All patients at each dose level were observed through the end of the first cycle before the next dose level could begin treatment. […]
The primary objective of phase 1 was to establish the MTD of pacritinib in patients with advanced myeloid malignancies, defined as the highest dose level at which no more than one out of six patients in the cohort experienced a DLT during cycle 1 (25 days) of therapy. […] Clinical benefit rate was assessed as an exploratory endpoint, defined as the proportion of patients who experienced a complete response, partial response, clinical improvement, or stable disease (SD) during the study.

[2] = Phase 1 pharmacokinetics (liquid chromatography/tandem mass spectrometry); type: in vivo, human; set-up: C24h, Mean / C24h, Median: unit not given here; conditions: for AUC(0-t) / Cmax / Tmax: human, in vivo
Procedure: In phase 1, full PK sampling was performed on days 1 and 15 of cycle 1 and day 1 of cycle 2. Trough PK samples were drawn prior to dosing on days 8 and 22 of cycle 1 and at 24, 48, and 72 h after dosing on day 25 of cycle 1. A sample was collected before dosing on day 1 of cycles 4, 7, and 10. Pacritinib concentrations were determined using a validated liquid chromatography/tandem mass spectrometry method. An analysis of clinical exposures from the HCl and citrate salts of pacritinib was performed comparing Day 1 PK data from 12 patients who received the HCl salt formulation in the 200 mg cohorts of this study and two other pacritinib studies [NCT00741871 and NCT00745550]) with six patients in the 200 mg cohort of this study who received the citrate salt formulation.

[3] = phase 1, Day 1, 200 mg (HCl and citrate salt cohorts pooled)
[4] = phase 1, Day 15, 200 mg (HCl and citrate salt cohorts pooled)

## C1=C/COCc2cc(ccc2OCCN2CCCC2)Nc2nccc(n2)-c2cccc(c2)COC/1 [pacritinib, 11-(2-pyrrolidin-1-yl-ethoxy)-14,19-dioxa-5,7,26-triaza-tetracyclo[19.3.1.1(2,6). 1(8,12)]heptacosa-1(25),2(26),3,5,8,10,12(27),16,21,23-decaene]
[1]; human, in vivo
  Recommended phase 2 dose: 400 mg QD
[1]; phase 1, oral
  Maximum tolerated dose (MTD): 500 mg QD
[2]; 200 mg, day 1, 6 patients citrate vs 12 patients HCl
  Mean PK profiles, citrate vs HCl salts: similar
[2]; oral, 100 mg, phase 1, Day 1, 100 mg, read-out: AUC0-24h, Mean
  AUC(0-t): 65.9 µg·h/mL
[2]; oral, 100 mg, phase 1, Day 1, 100 mg, read-out: AUC0-24h, Median
  AUC(0-t): 56 µg·h/mL
[2]; oral, 100 mg, phase 1, Day 1, 100 mg, read-out: Cmax, Mean
  Cmax: 3700 ng/mL
[2]; oral, 100 mg, phase 1, Day 1, 100 mg, read-out: Cmax, Median
  Cmax: 2910 ng/mL
[2]; oral, 100 mg, phase 1, Day 1, 100 mg, read-out: Tmax, Median
  Tmax: 5 h
[2]; oral, 100 mg, phase 1, Day 15, 100 mg, read-out: AUC0-24h, Mean
  AUC(0-t): 120 µg·h/mL
[2]; oral, 100 mg, phase 1, Day 15, 100 mg, read-out: AUC0-24h, Median
  AUC(0-t): 121 µg·h/mL
[2]; oral, 100 mg, phase 1, Day 15, 100 mg, read-out: Cmax, Mean
  Cmax: 6360 ng/mL
[2]; oral, 100 mg, phase 1, Day 15, 100 mg, read-out: Cmax, Median
  Cmax: 6180 ng/mL
[2]; oral, 100 mg, phase 1, Day 15, 100 mg, read-out: Tmax, Median
  Tmax: 3 h
[2]; oral, 150 mg, phase 1, Day 1, 150 mg, read-out: AUC0-24h, Mean
  AUC(0-t): 64.7 µg·h/mL
[2]; oral, 150 mg, phase 1, Day 1, 150 mg, read-out: AUC0-24h, Median
  AUC(0-t): 69.2 µg·h/mL
[2]; oral, 150 mg, phase 1, Day 1, 150 mg, read-out: Cmax, Mean
  Cmax: 3720 ng/mL
[2]; oral, 150 mg, phase 1, Day 1, 150 mg, read-out: Cmax, Median
  Cmax: 3790 ng/mL
[2]; oral, 150 mg, phase 1, Day 15, 150 mg, read-out: AUC0-24h, Mean
  AUC(0-t): 140 µg·h/mL
[2]; oral, 150 mg, phase 1, Day 15, 150 mg, read-out: AUC0-24h, Median
  AUC(0-t): 114 µg·h/mL
[2]; oral, 150 mg, phase 1, Day 15, 150 mg, read-out: Cmax, Mean
  Cmax: 6700 ng/mL
[2]; oral, 150 mg, phase 1, Day 15, 150 mg, read-out: Cmax, Median
  Cmax: 5410 ng/mL
[2]; oral, 150 mg, phase 1, Day 15, 150 mg, read-out: Tmax, Median
  Tmax: 2.5 h
[2]; oral, 300 mg, phase 1, Day 1, 300 mg, read-out: AUC0-24h, Mean
  AUC(0-t): 87.1 µg·h/mL
[2]; oral, 300 mg, phase 1, Day 1, 300 mg, read-out: AUC0-24h, Median
  AUC(0-t): 98.2 µg·h/mL
[2]; oral, 300 mg, phase 1, Day 1, 300 mg, read-out: Cmax, Mean
  Cmax: 5240 ng/mL
[2]; oral, 300 mg, phase 1, Day 1, 300 mg, read-out: Cmax, Median
  Cmax: 5830 ng/mL
[2]; oral, 300 mg, phase 1, Day 15, 300 mg, read-out: AUC0-24h, Mean
  AUC(0-t): 133 µg·h/mL
[2]; oral, 300 mg, phase 1, Day 15, 300 mg, read-out: AUC0-24h, Median
  AUC(0-t): 134 µg·h/mL
[2]; oral, 300 mg, phase 1, Day 15, 300 mg, read-out: Cmax, Mean
  Cmax: 6410 ng/mL
[2]; oral, 300 mg, phase 1, Day 15, 300 mg, read-out: Cmax, Median
  Cmax: 6860 ng/mL
[2]; oral, 400 mg, phase 1, Day 1, 400 mg, read-out: AUC0-24h, Mean
  AUC(0-t): 127 µg·h/mL
[2]; oral, 400 mg, phase 1, Day 1, 400 mg, read-out: AUC0-24h, Median
  AUC(0-t): 118 µg·h/mL
[2]; oral, 400 mg, phase 1, Day 1, 400 mg, read-out: Cmax, Mean
  Cmax: 6280 ng/mL
[2]; oral, 400 mg, phase 1, Day 1, 400 mg, read-out: Cmax, Median
  Cmax: 5640 ng/mL
[2]; oral, 400 mg, phase 1, Day 1, 400 mg, read-out: Tmax, Median
  Tmax: 8 h
[2]; oral, 400 mg, phase 1, Day 15, 400 mg, read-out: AUC0-24h, Mean
  AUC(0-t): 203 µg·h/mL
[2]; oral, 400 mg, phase 1, Day 15, 400 mg, read-out: AUC0-24h, Median
  AUC(0-t): 240 µg·h/mL
[2]; oral, 400 mg, phase 1, Day 15, 400 mg, read-out: Cmax, Mean
  Cmax: 9770 ng/mL
[2]; oral, 400 mg, phase 1, Day 15, 400 mg, read-out: Cmax, Median
  Cmax: 11700 ng/mL
[2]; oral, 500 mg, phase 1, Day 1, 500 mg, read-out: AUC0-24h, Mean
  AUC(0-t): 141 µg·h/mL
[2]; oral, 500 mg, phase 1, Day 1, 500 mg, read-out: AUC0-24h, Median
  AUC(0-t): 118 µg·h/mL
[2]; oral, 500 mg, phase 1, Day 1, 500 mg, read-out: Cmax, Mean
  Cmax: 7050 ng/mL
[2]; oral, 500 mg, phase 1, Day 1, 500 mg, read-out: Cmax, Median
  Cmax: 6310 ng/mL
[2]; oral, 500 mg, phase 1, Day 15, 500 mg, read-out: AUC0-24h, Mean
  AUC(0-t): 178 µg·h/mL
[2]; oral, 500 mg, phase 1, Day 15, 500 mg, read-out: AUC0-24h, Median
  AUC(0-t): 161 µg·h/mL
[2]; oral, 500 mg, phase 1, Day 15, 500 mg, read-out: Cmax, Mean
  Cmax: 8730 ng/mL
[2]; oral, 500 mg, phase 1, Day 15, 500 mg, read-out: Cmax, Median
  Cmax: 7990 ng/mL
[2]; oral, 600 mg, phase 1, Day 1, 600 mg, read-out: AUC0-24h, Mean
  AUC(0-t): 136 µg·h/mL
[2]; oral, 600 mg, phase 1, Day 1, 600 mg, read-out: AUC0-24h, Median
  AUC(0-t): 129 µg·h/mL
[2]; oral, 600 mg, phase 1, Day 1, 600 mg, read-out: Cmax, Mean
  Cmax: 8330 ng/mL
[2]; oral, 600 mg, phase 1, Day 1, 600 mg, read-out: Cmax, Median
  Cmax: 7880 ng/mL
[2]; oral, 600 mg, phase 1, Day 1, 600 mg, read-out: Tmax, Median
  Tmax: 4.5 h
[2]; oral, 600 mg, phase 1, Day 15, 600 mg, read-out: AUC0-24h, Mean
  AUC(0-t): 161 µg·h/mL
[2]; oral, 600 mg, phase 1, Day 15, 600 mg, read-out: AUC0-24h, Median
  AUC(0-t): 161 µg·h/mL
[2]; oral, 600 mg, phase 1, Day 15, 600 mg, read-out: Cmax, Mean
  Cmax: 9220 ng/mL
[2]; oral, 600 mg, phase 1, Day 15, 600 mg, read-out: Cmax, Median
  Cmax: 8560 ng/mL
[2]; oral, phase 1, day 1, 100-600 mg, read-out: Median time to maximum concentration (Tmax), range over dose cohorts
  Tmax: 4 to 8 h
[2]; oral, phase 1, day 15, 100-600 mg, read-out: Median time to maximum concentration (Tmax), range over dose cohorts
  Tmax: 2.5 to 5 h
[2]; po, 200 mg, phase 1, Day 1, 200 mg (HCl and citrate salt cohorts pooled), read-out: AUC0-24h, Mean
  AUC(0-t): 93.3 µg·h/mL
[2]; po, 200 mg, phase 1, Day 1, 200 mg (HCl and citrate salt cohorts pooled), read-out: AUC0-24h, Median
  AUC(0-t): 87.3 µg·h/mL
[2]; po, 200 mg, phase 1, Day 1, 200 mg (HCl and citrate salt cohorts pooled), read-out: Cmax, Mean
  Cmax: 5000 ng/mL
[2]; po, 200 mg, phase 1, Day 1, 200 mg (HCl and citrate salt cohorts pooled), read-out: Cmax, Median
  Cmax: 4570 ng/mL
[2]; po, 200 mg, phase 1, Day 1, 200 mg (HCl and citrate salt cohorts pooled), read-out: Tmax, Median
  Tmax: 5 h
[2]; po, 200 mg, phase 1, Day 15, 200 mg (HCl and citrate salt cohorts pooled), read-out: AUC0-24h, Mean
  AUC(0-t): 125 µg·h/mL
[2]; po, 200 mg, phase 1, Day 15, 200 mg (HCl and citrate salt cohorts pooled), read-out: AUC0-24h, Median
  AUC(0-t): 130 µg·h/mL
[2]; po, 200 mg, phase 1, Day 15, 200 mg (HCl and citrate salt cohorts pooled), read-out: Cmax, Mean
  Cmax: 6700 ng/mL
[2]; po, 200 mg, phase 1, Day 15, 200 mg (HCl and citrate salt cohorts pooled), read-out: Cmax, Median
  Cmax: 6450 ng/mL
[2]; po, 200 mg, phase 1, Day 15, 200 mg (HCl and citrate salt cohorts pooled), read-out: Tmax, Median
  Tmax: 5 h
[2]; phase 1, Day 1, 100 mg
  C24h, Mean: 2440
  C24h, Median: 2318
[2]; phase 1, Day 1, 150 mg
  C24h, Mean: 3113
  C24h, Median: 2316
[2]; [3]
  C24h, Mean: 3921
  C24h, Median: 3026
[2]; phase 1, Day 1, 300 mg
  C24h, Mean: 4213
  C24h, Median: 3528
[2]; phase 1, Day 1, 400 mg
  C24h, Mean: 5644
  C24h, Median: 4725
[2]; phase 1, Day 1, 500 mg
  C24h, Mean: 5899
  C24h, Median: 4417
[2]; phase 1, Day 1, 600 mg
  C24h, Mean: 5093
  C24h, Median: 4136
[2]; phase 1, Day 15, 100 mg
  C24h, Mean: 3945
  C24h, Median: 4322
[2]; phase 1, Day 15, 150 mg
  C24h, Mean: 5428
  C24h, Median: 5026
[2]; [4]
  C24h, Mean: 4852
  C24h, Median: 4993
[2]; phase 1, Day 15, 300 mg
  C24h, Mean: 4965
  C24h, Median: 4850
[2]; phase 1, Day 15, 400 mg
  C24h, Mean: 8429
  C24h, Median: 10168
[2]; phase 1, Day 15, 500 mg
  C24h, Mean: 6550
  C24h, Median: 5685
[2]; phase 1, Day 15, 600 mg
  C24h, Mean: 6439
  C24h, Median: 5417
[2]; phase 1, day 1
  Between-patient coefficient of variation for Cmax and AUC0–24: 25 to 63%
  Dose proportionality of exposure (Cmax, C24, AUC0–24): less than dose-proportional
[2]; phase 1, day 15
  Between-patient coefficient of variation for Cmax and AUC0–24: 20–54%
  Dose dependence of exposure (Cmax, C24, AUC0–24): plateau above the 400 mg dose level
